Paper PMC4908816 (Molecular microbiology, 2016)
Values joined by “and” are separate entries in the source; they are usually repeats but may differ in a detail not shown here. Identical values can stand only once.

What was measured:
[1] = target: T1, TrwD (Escherichia coli, UniProt O50338); assay: ATP hydrolysis assay; assay type: biochemical, conjugative plasmid R388; settings: for K0.5 ATP of TrwD in the presence of fatty acid / mechanism of inhibition of TrwD ATP hydrolysis: 21 μM linoleic acid or 30 μM 2-HDA; for K0.5 ATP of TrwD in the presence of fatty acid: 44 μM in the absence of fatty acids; for mechanism of inhibition of TrwD ATP hydrolysis: increasing ATP; for effect on Vmax of TrwD ATP hydrolysis: compound at its Ki[app] (21 μM linoleic acid, 30 μM 2-HDA); for inhibition (reduction) of TrwD ATPase activity: 50 μM fatty acid
T1 sequence (O50338 1-358): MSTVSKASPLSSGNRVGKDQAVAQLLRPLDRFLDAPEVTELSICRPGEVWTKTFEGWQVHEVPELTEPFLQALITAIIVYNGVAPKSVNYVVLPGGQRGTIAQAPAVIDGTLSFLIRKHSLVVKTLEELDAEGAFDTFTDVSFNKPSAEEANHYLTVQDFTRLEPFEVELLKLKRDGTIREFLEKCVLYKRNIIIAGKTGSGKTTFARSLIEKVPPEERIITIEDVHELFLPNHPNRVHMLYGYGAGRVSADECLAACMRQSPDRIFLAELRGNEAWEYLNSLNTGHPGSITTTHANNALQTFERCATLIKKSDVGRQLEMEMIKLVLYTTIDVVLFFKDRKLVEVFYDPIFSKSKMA

[2] = system: R388-mediated conjugation; settings: cited from earlier work; for inhibition of bacterial conjugation: ref Getino et al., 2015; for inhibition of bacterial conjugation in vivo assays: ref Fernández-Lopez et al., 2005
[3] = system: R388 transfer (bacterial conjugation); assay: High-throughput conjugation assay; assay type: cell-based; settings: 500 μM compound (Fig. 3A), E. coli DH5α donor, BL21(DE3) recipient
[4] = target: T1, TrwD; assay: Partial proteolysis of TrwD by papain; parameters: species or system conjugative plasmid R388; settings: 1:10 to 1:100 TrwD:2-HDA or 1:100 TrwD:palmitic acid molar ratio; 90 min, 25 °C
[5] = target: TrwB (Escherichia coli, UniProt Q04230); assay: ATP hydrolysis assay; assay type: biochemical, conjugative plasmid R388; settings: 50 μM linoleic acid; ATPase 2 μM
[6] = target: TrwK (Escherichia coli, UniProt O50330); assay: ATP hydrolysis assay; assay type: biochemical, conjugative plasmid R388; settings: 50 μM linoleic acid; ATPase 2 μM
[7] = system: TrwC; assay: ATP hydrolysis assay; assay type: biochemical, conjugative plasmid R388; settings: 50 μM linoleic acid; ATPase 2 μM

CCCCCCCCCC#CCCC#CC(=O)O [2,6-HDA, 2,6 hexadecadiynoic acid]
Ki [1]: 43.8 ± 2.8 µM
inhibition of bacterial conjugation [2]: more effective in inhibiting bacterial conjugation
inhibition of bacterial conjugation [3]: efficient conjugation inhibitors

CCCCCCCCCCCCCC#CC(=O)O [2-HDA, 2-hexadecynoic acid]
susceptibility of TrwD to papain digestion [4]: high susceptibility to papain degradation
Ki [1]: 29.7 ± 2.1 µM
K0.5 ATP of TrwD in the presence of fatty acid ([1]; TrwD 2 μM): 66 µM
mechanism of inhibition of TrwD ATP hydrolysis [1]: non-competitive
Kd ADP of TrwD in the presence of fatty acid ([1]; 30 μM 2-HDA, TrwD 2 μM, control without 2-HDA 45.1 ± 4.1 μM): 51 µM and 51.7 ± 9.8 µM
effect on Vmax of TrwD ATP hydrolysis [1]: reduced by half
inhibition of bacterial conjugation [2]: more effective in inhibiting bacterial conjugation

CCCCCCCCCCCCCCCC(=O)O [Palmitic acid]
susceptibility of TrwD to papain digestion [4]: did not affect the susceptibility
inhibition (reduction) of TrwD ATPase activity ([1]; TrwD 2 μM): no inhibition was observed
inhibition of bacterial conjugation in vivo assays [2]: unable to inhibit significantly

CCCCCCCCCCCCCCCC#CC(=O)O [2-ODA, 2-octadecynoic acid]
Ki [1]: 29.8 ± 4.1 µM
inhibition of bacterial conjugation [2]: more effective in inhibiting bacterial conjugation
inhibition of bacterial conjugation [3]: efficient conjugation inhibitors

CCCCCCCCCCCC(=O)O [Lauric acid]
inhibition (reduction) of TrwD ATPase activity ([1]; TrwD 2 μM): no inhibition was observed
inhibition of bacterial conjugation in vivo assays [2]: unable to inhibit significantly

CCCCCCCC/C=C\CCCCCCCC(=O)O [oleic acid]
inhibition (reduction) of TrwD ATPase activity ([1]; TrwD 2 μM): more than 90%
inhibition of bacterial conjugation in vivo assays [2]: effective inhibitors of bacterial conjugation

CCCCC/C=C\C/C=C\CCCCCCCC(=O)O [linoleic acid]
effect on TrwB ATPase activity [5]: no significant effect
Ki [1]: 20.9 ± 1.6 µM
K0.5 ATP of TrwD in the presence of fatty acid ([1]; TrwD 2 μM): 44 µM
mechanism of inhibition of TrwD ATP hydrolysis [1]: non-competitive
effect on Vmax of TrwD ATP hydrolysis [1]: reduced by half
inhibition of bacterial conjugation in vivo assays [2]: effective inhibitors of bacterial conjugation
effect on TrwK ATPase activity [6]: no significant effect
effect on TrwC ATPase activity [7]: no significant effect
